ChEMBL document CHEMBL4342426, “Structure-activity relationship of 4-azaindole-2-piperidine derivatives as agents against Trypanosoma cruzi” (Bioorg Med Chem Lett, 2020)

How the values were obtained:
in vitro [1] = details: human, MRC5 SV2 cells
Description: Selectivity index, ratio of IC50 for human MRC5 SV2 cells to IC50 for Trypanosoma brucei rhodesiense STIB900 trypomastigotes

Trypanosoma cruzi = experiment: microbe, parasite or virus in culture; details: Tulahuen CL2, MRC-5 SV2, 168 h
Description: Antitrypanosomal activity against Trypanosoma cruzi Tulahuen CL2 amastigotes infected in human MRC5 SV2 cells incubated for 7 days by chlorophenol red beta-D-galactopyranoside substrate based spectrophotometric assay

in vitro [2] = details: mouse, liver microsomes
Description: Metabolic stability in mouse liver microsomes assessed as intrinsic clearance at 0.5 uM incubated for 30 mins by LC-MS/MS analysis

in vitro [3] = details: mouse, liver microsomes; remark: listed apart in the source
Description: Metabolic stability in mouse liver microsomes assessed as fraction unbound at 0.5 uM incubated for 30 mins by LC-MS/MS analysis

in vitro [4] = details: PAMPA
Description: Effective permeability of compound by PAMPA assay

physchem = details: buffer, pH 7.4
Description: Lipophilicity, logD of compound at pH 7.4 by HPLC analysis

cells = details: Homo sapiens, MRC-5 SV2, 72 h
Description: (§1) Cytotoxicity against human MRC5 SV2 cells assessed as reduction in cell viability incubated for 3 days by fluorimetry

in vitro [5] = details: human, MRC5 SV2 cells; remark: listed apart in the source
Description: as §1

Macrophage = experiment: cells; details: Mus musculus, 72 h
Description: (§2) Cytotoxicity against mouse peritoneal Macrophage cells assessed as reduction in cell viability incubated for 3 days by fluorimetry

Leishmania infantum = experiment: microbe, parasite or virus in culture; details: for IC50: MHOM/MA(BE)/67/ITMAP263, 120 h; for IC90: MHOM/MA(BE)/67/ITMAP263, in Mus musculus, 120 h
Description: Antileishmanial activity against amastigote stage of Leishmania infantum MHOM/MA(BE)/67/ITMAP263 infected in mouse peritoneal macrophage assessed as parasite growth inhibition incubated for 5 days by Giemsa staining based assay

[6] = tested on: Trypanosoma brucei rhodesiense; experiment: microbe, parasite or virus in culture; details: STIB900, 72 h
Description: Antiprotozoal activity against Trypanosoma brucei rhodesiense STIB900 trypomastigotes incubated for 72 hrs by resazurin dye based fluorimetric analysis

in vitro [7] = details: human, liver microsomes
Description: Metabolic stability in human liver microsomes assessed as intrinsic clearance at 0.5 uM incubated for 30 mins by LC-MS/MS analysis

in vitro [8] = details: mouse, peritoneal macrophages
Description: as §2

Trypanosoma brucei = experiment: microbe, parasite or virus in culture; details: Squib 427, 72 h
Description: Antitrypanosomal activity against Trypanosoma brucei Squib 427 assessed as reduction in parasite growth incubated for 72 hrs by resazurin dye based fluorimetric analysis

in vitro [9] = details: human, MRC5 SV2 cells; remark: listed apart in the source
Description: Selectivity index, ratio of IC50 for human MRC5 SV2 cells to IC50 for Trypanosoma cruzi Tulahuen CL2 amastigotes infected in human MRC5 SV2 cells

in vitro [10] = details: mouse, peritoneal macrophages; remark: listed apart in the source
Description: Selectivity index, ratio of IC50 for mouse peritoneal macrophage to IC50 for Leishmania infantum MHOM/MA(BE)/67/ITMAP263 infected in mouse peritoneal macrophage

Compound: O=C(c1ccc(F)cc1)N1CCCC(c2cc3nc(Cl)ccc3[nH]2)C1 (stereo unspecified)
- selectivity ratio (in vitro [1]): 26
- IC50 (Trypanosoma cruzi): 64 µM
- IC90 (Trypanosoma cruzi): 64 µM
- CLint scaled at 0.5 h, 0.5 µM (in vitro [2]): 1390 mL/min/kg
- microsomal CLint at 0.5 h, 0.5 µM (in vitro [2]): 294 µL/min/mg
- fraction unbound at 0.5 h, 0.5 µM (in vitro [3]): 0.676
- Papp (in vitro [4]): 15 ×10⁻⁶ cm/s
- logD (physchem): 3.52
- IC50 (cells): 64 µM
- IC90 at 72 h (in vitro [5]): 64 µM
- IC50 (Macrophage): 64 µM
- IC50 (Leishmania infantum): 64 µM
- IC90 (Leishmania infantum): 64 µM
- IC50 [6]: 2.46 µM
- IC90 [6]: 15.1 µM
- CLint scaled at 0.5 h, 0.5 µM (in vitro [7]): 125 mL/min/kg
- microsomal CLint at 0.5 h, 0.5 µM (in vitro [7]): 78.4 µL/min/mg
- IC90 at 72 h (in vitro [8]): 64 µM
- IC50 (Trypanosoma brucei): 64 µM
- IC90 (Trypanosoma brucei): 64 µM

Compound: CCC(=O)N1CCCC(c2nc3ncc(Cl)cc3[nH]2)C1 (stereo unspecified)
- selectivity ratio (in vitro [1]): 1.53
- IC50 (Trypanosoma cruzi): 64 µM
- IC90 (Trypanosoma cruzi): 64 µM
- CLint scaled at 0.5 h, 0.5 µM (in vitro [2]): 472 mL/min/kg
- microsomal CLint at 0.5 h, 0.5 µM (in vitro [2]): 128 µL/min/mg
- fraction unbound at 0.5 h, 0.5 µM (in vitro [3]): 0.866
- Papp (in vitro [4]): 9.01 ×10⁻⁶ cm/s
- logD (physchem): 2.17
- IC50 (cells): 64 µM
- IC90 at 72 h (in vitro [5]): 64 µM
- IC50 (Macrophage): 64 µM
- IC50 (Leishmania infantum): 64 µM
- IC90 (Leishmania infantum): 64 µM
- IC50 [6]: 41.9 µM
- IC90 [6]: 64 µM
- CLint scaled at 0.5 h, 0.5 µM (in vitro [7]): < 28.3 mL/min/kg
- microsomal CLint at 0.5 h, 0.5 µM (in vitro [7]): < 23 µL/min/mg
- IC90 at 72 h (in vitro [8]): 64 µM
- IC50 (Trypanosoma brucei): 64 µM
- IC90 (Trypanosoma brucei): 64 µM

Compound: O=C(c1ccccc1)N1C=C(c2cc3ncccc3[nH]2)CCC1
- IC50 (Trypanosoma cruzi): 0.866 µM
- IC90 (Trypanosoma cruzi): 16 µM
- CLint scaled at 0.5 h, 0.5 µM (in vitro [2]): ≥ 3320 mL/min/kg
- microsomal CLint at 0.5 h, 0.5 µM (in vitro [2]): 1040 µL/min/mg
- selectivity ratio (in vitro [9]): 73.8
- Papp (in vitro [4]): 2.99 ×10⁻⁶ cm/s
- logD (physchem): 2.96
- IC50 (cells): 64 µM
- IC90 at 72 h (in vitro [5]): 64 µM
- IC50 (Macrophage): 64 µM
- selectivity ratio (in vitro [10]): 1.84
- IC50 (Leishmania infantum): 34.9 µM
- IC90 (Leishmania infantum): 64 µM
- IC50 [6]: 64 µM
- IC90 [6]: 64 µM
- CLint scaled at 0.5 h, 0.5 µM (in vitro [7]): ≥ 257 mL/min/kg
- microsomal CLint at 0.5 h, 0.5 µM (in vitro [7]): 238 µL/min/mg
- IC90 at 72 h (in vitro [8]): 64 µM
- IC50 (Trypanosoma brucei): 64 µM
- IC90 (Trypanosoma brucei): 64 µM

Compound: COc1cc(OC)c2cc(C(=O)N3CCCC(c4cc5ncccc5[nH]4)C3)[nH]c2c1 (stereo unspecified)
- selectivity ratio (in vitro [1]): 2.65
- IC50 (Trypanosoma cruzi): 1.03 µM
- IC90 (Trypanosoma cruzi): 3.13 µM
- CLint scaled at 0.5 h, 0.5 µM (in vitro [2]): 2420 mL/min/kg
- selectivity ratio (in vitro [9]): 18.8
- IC50 (cells): 19.5 µM
- IC90 at 72 h (in vitro [5]): 29.5 µM
- IC50 (Macrophage): 22.6 µM
- selectivity ratio (in vitro [10]): 1.07
- IC50 (Leishmania infantum): 18.6 µM
- IC90 (Leishmania infantum): 29.8 µM
- IC50 [6]: 7.33 µM
- IC90 [6]: 24.4 µM
- CLint scaled at 0.5 h, 0.5 µM (in vitro [7]): 838 mL/min/kg
- IC90 at 72 h (in vitro [8]): 29.9 µM
- IC50 (Trypanosoma brucei): 19.6 µM
- IC90 (Trypanosoma brucei): 29.5 µM

Compound: O=C(c1cc(C(F)(F)F)no1)N1CCCC(c2cc3ncc(-c4ccccc4)cc3[nH]2)C1 (stereo unspecified)
- IC50 (Trypanosoma cruzi): 64 µM
- IC90 (Trypanosoma cruzi): 64 µM
- fraction unbound at 0.5 h, 0.5 µM (in vitro [3]): 0.157
- Papp (in vitro [4]): 0.307 ×10⁻⁶ cm/s
- logD (physchem): 4.59
- IC50 (cells): 64 µM
- IC90 at 72 h (in vitro [5]): 64 µM
- IC50 (Macrophage): 45.3 µM
- selectivity ratio (in vitro [10]): 1.79
- IC50 (Leishmania infantum): 35.1 µM
- IC90 (Leishmania infantum): 59.6 µM
- IC50 [6]: 64 µM
- IC90 [6]: 64 µM
- CLint scaled at 0.5 h, 0.5 µM (in vitro [7]): 1350 mL/min/kg
- microsomal CLint at 0.5 h, 0.5 µM (in vitro [7]): 196 µL/min/mg
- IC90 at 72 h (in vitro [8]): 59.7 µM
- IC50 (Trypanosoma brucei): 64 µM
- IC90 (Trypanosoma brucei): 64 µM

Compound: CC(C)c1cc(C(=O)N2CCCC(O)(c3cc4ncccc4[nH]3)C2)on1 (stereo unspecified)
- IC50 (Trypanosoma cruzi): 8.35 to 58.5 µM
- IC90 (Trypanosoma cruzi): 15.6 to 64 µM
- CLint scaled at 0.5 h, 0.5 µM (in vitro [2]): 616 to 2560 mL/min/kg
- microsomal CLint at 0.5 h, 0.5 µM (in vitro [2]): 155 to 600 µL/min/mg
- selectivity ratio (in vitro [9]): 1.9
- logD (physchem): 2.26
- IC50 (cells): 56.5 to 64 µM
- IC90 at 72 h (in vitro [5]): 64 µM
- IC50 (Macrophage): 64 µM
- selectivity ratio (in vitro [10]): 1.14
- IC50 (Leishmania infantum): 49.3 to 64 µM
- IC90 (Leishmania infantum): 64 µM
- IC50 [6]: 51.8 to 64 µM
- IC90 [6]: 64 µM
- CLint scaled at 0.5 h, 0.5 µM (in vitro [7]): 31 to 38.5 mL/min/kg
- microsomal CLint at 0.5 h, 0.5 µM (in vitro [7]): 23 to 26.6 µL/min/mg
- IC90 at 72 h (in vitro [8]): 64 µM
- IC50 (Trypanosoma brucei): 64 µM
- IC90 (Trypanosoma brucei): 64 µM

Compound: COc1ccc(OC)c2[nH]c(C(=O)N3CCCC(c4cc5ncccc5[nH]4)C3)cc12 (stereo unspecified)
- selectivity ratio (in vitro [1]): 2.36
- IC50 (Trypanosoma cruzi): 1.2 µM
- IC90 (Trypanosoma cruzi): 6.67 µM
- CLint scaled at 0.5 h, 0.5 µM (in vitro [2]): 9620 mL/min/kg
- selectivity ratio (in vitro [9]): 18.9
- IC50 (cells): 22.6 µM
- IC90 at 72 h (in vitro [5]): 29.9 µM
- IC50 (Macrophage): 32 µM
- selectivity ratio (in vitro [10]): 2.35
- IC50 (Leishmania infantum): 9.59 µM
- IC90 (Leishmania infantum): 32 µM
- IC50 [6]: 9.55 µM
- IC90 [6]: 25.6 µM
- CLint scaled at 0.5 h, 0.5 µM (in vitro [7]): 235 mL/min/kg
- IC90 at 72 h (in vitro [8]): 32 µM
- IC50 (Trypanosoma brucei): 20.5 µM
- IC90 (Trypanosoma brucei): 29.9 µM

Compound: O=C(Nc1ccc(-c2cc3ncccc3[nH]2)cc1)c1ccccc1
- selectivity ratio (in vitro [1]): 1.45
- IC50 (Trypanosoma cruzi): 25.2 µM
- IC90 (Trypanosoma cruzi): 64 µM
- CLint scaled at 0.5 h, 0.5 µM (in vitro [2]): ≥ 597 mL/min/kg
- microsomal CLint at 0.5 h, 0.5 µM (in vitro [2]): 187 µL/min/mg
- selectivity ratio (in vitro [9]): 2.54
- Papp (in vitro [4]): 0.545 ×10⁻⁶ cm/s
- logD (physchem): 3.86
- IC50 (cells): 64 µM
- IC90 at 72 h (in vitro [5]): 64 µM
- IC50 (Macrophage): 45.3 µM
- IC50 (Leishmania infantum): 45.6 µM
- IC90 (Leishmania infantum): 60.5 µM
- IC50 [6]: 44.6 µM
- IC90 [6]: 64 µM
- CLint scaled at 0.5 h, 0.5 µM (in vitro [7]): ≥ 105 mL/min/kg
- microsomal CLint at 0.5 h, 0.5 µM (in vitro [7]): 97.5 µL/min/mg
- IC90 at 72 h (in vitro [8]): 59.7 µM
- IC50 (Trypanosoma brucei): 64 µM
- IC90 (Trypanosoma brucei): 64 µM
